Laboratory results reported in the NIST ThermoML archive (doi:10.1021/je020189p).
“And” between values parts separate entries of the source, which are not always exact repeats. Identical values can stand only once.

Conditions: Crystal

[Br-].[Br-].[Br-].[Tb+3] [terbium tribromide]
Conditions	vapor or sublimation pressure
904 K	4.79e-05 kPa
908 K	4.68e-05 kPa
912 K	3.8e-05 kPa
915 K	7.59e-05 kPa and 4.79e-05 kPa and 4.17e-05 kPa
917 K	8.13e-05 kPa
920 K	8.51e-05 kPa and 8.32e-05 kPa and 4.79e-05 kPa
921 K	7.59e-05 kPa
922 K	8.32e-05 kPa and 6.17e-05 kPa
924 K	0.000105 kPa
925 K	7.24e-05 kPa
928 K	9.55e-05 kPa
930 K	0.000132 kPa and 8.51e-05 kPa
931 K	0.00012 kPa
933 K	9.55e-05 kPa
934 K	8.51e-05 kPa and 0.00012 kPa
935 K	0.000151 kPa
937 K	0.000123 kPa and 0.000138 kPa
939 K	0.000151 kPa
940 K	0.000182 kPa [middle of 4 runs]
941 K	0.000115 kPa
943 K	0.000141 kPa
944 K	0.000209 kPa and 0.000186 kPa
945 K	0.000186 kPa
947 K	0.000214 kPa
948 K	0.00024 kPa and 0.000141 kPa
950 K	0.000182 kPa and 0.000166 kPa
954 K	0.000295 kPa
955 K	0.000191 kPa and 0.000269 kPa
956 K	0.000229 kPa
957 K	0.000331 kPa and 0.000229 kPa and 0.000275 kPa
958 K	0.000331 kPa and 0.000288 kPa
960 K	0.000363 kPa and 0.000316 kPa
962 K	0.000347 kPa [middle of 4 runs]
964 K	0.000288 kPa and 0.000389 kPa
968 K	0.000295 kPa
969 K	0.000363 kPa
970 K	0.000501 kPa
971 K	0.000355 kPa
973 K	0.000537 kPa and 0.000501 kPa
974 K	0.000575 kPa and 0.000355 kPa
975 K	0.000427 kPa
976 K	0.000501 kPa
977 K	0.000427 kPa and 0.000575 kPa
978 K	0.000617 kPa
980 K	0.000427 kPa
981 K	0.000661 kPa
983 K	0.000537 kPa and 0.000741 kPa
988 K	0.000871 kPa
989 K	0.000832 kPa
990 K	0.000912 kPa
991 K	0.001 kPa
992 K	0.00107 kPa
993 K	0.00107 kPa and 0.001 kPa
999 K	0.00115 kPa
1000 K	0.00126 kPa
1002 K	0.00132 kPa
1003 K	0.00138 kPa
1004 K	0.00148 kPa and 0.00158 kPa and 0.00129 kPa
1007 K	0.00155 kPa
1012 K	0.00174 kPa
1014 K	0.00166 kPa and 0.00209 kPa
1015 K	0.002 kPa and 0.00224 kPa
1019 K	0.00257 kPa
1020 K	0.00224 kPa
1024 K	0.0024 kPa
1025 K	0.00263 kPa and 0.00295 kPa
1030 K	0.00295 kPa
1032 K	0.00295 kPa
1035 K	0.00331 kPa and 0.00417 kPa
1039 K	0.00398 kPa
1042 K	0.00537 kPa
1045 K	0.00468 kPa
1047 K	0.00575 kPa
1049 K	0.00575 kPa
1051 K	0.00676 kPa
1054 K	0.00646 kPa
1058 K	0.00708 kPa
1059 K	0.00851 kPa and 0.00832 kPa
1064 K	0.00912 kPa
1067 K	0.01 kPa
1068 K	0.011 kPa and 0.0115 kPa
1071 K	0.0112 kPa
1076 K	0.0141 kPa and 0.0129 kPa
1078 K	0.0141 kPa
1085 K	0.0182 kPa
1088 K	0.0174 kPa and 0.0158 kPa
1099 K	0.0229 kPa
1108 K	0.0288 kPa
